Each structure is given as a SMILES string. Structures can show the parent of a compound that is named as a salt.
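Note: compound preincubated 30 min with CDK11A-p58, then probe added and polarization (mP) read 15 min later, 0% displacement is probe plus enzyme, 100% is probe alone.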

The test addresses T1, CDK11A (Homo sapiens, UniProt Q9UQ88).
T1 sequence (Q9UQ88 346-783): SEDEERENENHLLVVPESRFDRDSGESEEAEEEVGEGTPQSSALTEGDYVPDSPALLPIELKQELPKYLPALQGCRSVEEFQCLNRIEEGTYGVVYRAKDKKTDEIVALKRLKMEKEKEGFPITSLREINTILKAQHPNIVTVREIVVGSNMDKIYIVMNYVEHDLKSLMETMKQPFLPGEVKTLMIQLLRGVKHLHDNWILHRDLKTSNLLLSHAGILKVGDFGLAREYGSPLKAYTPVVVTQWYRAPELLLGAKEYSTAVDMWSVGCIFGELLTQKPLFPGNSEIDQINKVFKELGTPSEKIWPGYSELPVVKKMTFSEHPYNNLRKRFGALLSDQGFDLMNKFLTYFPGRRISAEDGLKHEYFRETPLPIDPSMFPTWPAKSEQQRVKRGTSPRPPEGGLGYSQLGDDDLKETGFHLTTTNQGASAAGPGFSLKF
The following applies: displacement of SNS-032-Atto590 probe (0.002 μM) from CDK11A-p58 (0.032 uM), fluorescence polarization.
Description: Biochemical Kinase Inhibition Assay on CDK11 in Displacement Assay Format
Displacement Assay Format
Fluorescence Polarization (FP) experiments were carried out at room temperature using no-binding black 384-well microplates (Corning, NY), in 50 mM Tris HCl, pH 8, 10 mM MgCl2, 1 mM DTT, 1 mM CHAPS in a final volume of 60 μl. The plate reader was the Pherastar microplate reader (BMG). Polarization values were read using excitation and emission wavelengths of 590 and 675 nm, respectively. All FP values are expressed as mP units.
Compounds were 4-folds serially diluted in 100% DMSO and added directly to the CDK11A-p58 solution using the pin tool (V & P Scientific): 0.2 ul of the different compound concentrations in 20 ul of enzyme solution. After an incubation of 30 minutes at r.t., 40 ul of probe solution were added. […] The Pherastar reading is performed after 15 minutes of all components incubation. For each assay, high controls (equivalent to 0% displacement) contain probe, CDK11A-p58, and 0.33% DMSO, whereas low controls (equivalent to 100% displacement) contain only probe and 0.33% DMSO. Controls are used for the Z′ and signal to background evaluation.
The data per each molecule are analyzed by Prism SW or an internally customized version of the SW package “Assay Explorer” which provides sigmoidal fittings of the ten-dilution curves for DC50 determination using a 4 parameters logistic equation:
where x is the logarithm of the inhibitor concentration, y is the response; y starts at bottom and goes to top with a sigmoid shape.
Turning to `O=C(Nc1n[nH]c2ccc(-c3c(Cl)cccc3Cl)cc12)[C@H]1CCNC1` [compound 168, (3S)-N-[5-(2,6-Dichlorophenyl)-1H-indazol-3-yl]pyrrolidine-3-carboxamide hydrochloride], the DC50 came out at 98 nM.

For `O=C(Nc1n[nH]c2ccc(-c3c(Cl)cccc3Cl)cc12)[C@H]1CCCNC1` [compound 170, (3S)-N-[5-(2,6-Dichlorophenyl)-1H-indazol-3-yl]piperidine-3-carboxamide hydrochloride], the DC50 amounted to 177 nM. As to `O=C(Nc1n[nH]c2ccc(-c3c(F)cccc3Cl)cc12)[C@@H]1CCCNC1` [compound 172, (3R)-N-[5-(2-Chloro-6-fluorophenyl)-1H-indazol-3-yl]piperidine-3-carboxamide hydrochloride], the DC50 is 42 nM. Then `O=C(Nc1n[nH]c2ccc(-c3c(F)cccc3Cl)cc12)[C@H]1CCCNC1` [compound 173, (3S)-N-[5-(2-Chloro-6-fluorophenyl)-1H-indazol-3-yl]piperidine-3-carboxamide hydrochloride], with 391 nM; and `NCCC(=O)Nc1n[nH]c2ccc(-c3c(Cl)cccc3Cl)cc12` [compound 175, N-[5-(2,6-Dichlorophenyl)-1H-indazol-3-yl]-b-alaninamide hydrochloride], with 339 nM.

The molecule `C[C@H]1CC[C@@H](C(=O)Nc2n[nH]c3ccc(-c4c(Cl)cccc4Cl)cc23)CN1` [compound 177, (3R,6S)-N-[5-(2,6-Dichlorophenyl)-1H-indazol-3-yl]-6-methylpiperidine-3-carboxamide trifluoroacetate] registered a DC50 of 54 nM. Then `C[C@@H]1CC[C@@H](C(=O)Nc2n[nH]c3ccc(-c4c(Cl)cccc4Cl)cc23)CN1` [compound 178, (3R,6R)-N-[5-(2,6-Dichlorophenyl)-1H-indazol-3-yl]-6-methylpiperidine-3-carboxamide trifluoroacetate], with 28 nM; and `N#Cc1ccc(Cl)c(-c2ccc3[nH]nc(NC(=O)[C@H]4CCCNC4)c3c2)c1` [compound 181, (3S)-N-[5-(2-Chloro-5-cyanophenyl)-1H-indazol-3-yl]piperidine-3-carboxamide hydrochloride], with 64 nM. In the case of `N#Cc1ccc(Cl)c(-c2ccc3[nH]nc(NC(=O)[C@H]4CNCCO4)c3c2)c1` [compound 182, (2R)-N-[5-(2-Chloro-5-cyanophenyl)-1H-indazol-3-yl]morpholine-2-carboxamide hydrochloride], the DC50 was found to be 140 nM. Then `N#Cc1ccc(Cl)c(-c2ccc3[nH]nc(NC(=O)C4CCCCNC4)c3c2)c1` (stereo not shown) [compound 183, N-[5-(2-Chloro-5-cyanophenyl)-1H-indazol-3-yl]azepane-3-carboxamide hydrochloride], with 73 nM. Then `N#Cc1ccc(Cl)c(-c2ccc3[nH]nc(NC(=O)C4CN5CCC4CC5)c3c2)c1` (stereo not shown) [compound 188, N-[5-(2-Chloro-5-cyanophenyl)-1H-indazol-3-yl]-1-azabicyclo[2.2.2]octane-3-carboxamide hydrochloride], with 275 nM. Then `CC(OC(=O)C(C)C)OC(=O)N1CCC[C@@H](C(=O)Nc2n[nH]c3ccc(-c4cc(C#N)ccc4Cl)cc23)C1` (stereo partly drawn) [compound 190, 1-[(2-Methylpropanoyl)oxy]ethyl (3R)-3-{[5-(2-chloro-5-cyanophenyl)-1H-indazol-3-yl]carbamoyl}piperidine-1-carboxylate], with 706 nM; and `CC(C)(C)C(=O)OCOC(=O)N1CCC[C@@H](C(=O)Nc2n[nH]c3ccc(-c4cc(C#N)ccc4Cl)cc23)C1` [compound 193, [(2,2-Dimethylpropanoyl)oxy]methyl (3R)-3-{[5-(2-chloro-5-cyanophenyl)-1H-indazol-3-yl]carbamoyl}-piperidine-1-carboxylate], with 340 nM.

In turn, `CC(C)C(OC(=O)N1CCC[C@@H](C(=O)Nc2n[nH]c3ccc(-c4cc(C#N)ccc4Cl)cc23)C1)OC(=O)C(C)(C)C` (stereo partly drawn) [compound 197, 1-[(2,2-Dimethylpropanoyl)oxy]-2-methylpropyl (3R)-3-{[5-(2-chloro-5-cyanophenyl)-1H-indazol-3-yl]carbamoyl}piperidine-1-carboxylate] gave a DC50 of 900 nM. As for `Nc1ccc(-c2ccc3[nH]nc(NC(=O)C4CCCNC4)c3c2)c(Cl)c1` (stereo not shown) [cpd 1, N-[5-(4-Amino-2-chlorophenyl)-1H-indazol-3-yl]piperidine-3-carboxamide dihydrochloride], the figure is 49 nM; as for `O=C(Nc1n[nH]c2ccc(-c3ccc(O)cc3Cl)cc12)C1CCCNC1` (stereo not shown) [cpd 3, N-[5-(2-Chloro-4-hydroxyphenyl)-1H-indazol-3-yl]piperidine-3-carboxamide hydrochloride], 51 nM. As for `O=C(Nc1n[nH]c2ccc(-c3cc(Cl)ccc3Cl)cc12)C1CCCNC1` (stereo not shown) [cpd 4, N-[5-(2,5-Dichlorophenyl)-1H-indazol-3-yl]piperidine-3-carboxamide hydrochloride], the figure is 50 nM; as for `Nc1ccc(-c2ccc3[nH]nc(NC(=O)[C@@H]4CCCNC4)c3c2)c(Cl)c1` [cpd 5, (3R)-N-[5-(4-Amino-2-chlorophenyl)-1H-indazol-3-yl]piperidine-3-carboxamide dihydrochloride], 18 nM; as for `O=C(Nc1n[nH]c2ccc(-c3ccc(O)cc3Cl)cc12)[C@@H]1CCCNC1` [cpd 6, (3R)-N-[5-(2-chloro-4-hydroxyphenyl)-1H-indazol-3-yl]piperidine-3-carboxamide hydrochloride], 23 nM. `Cc1ccc(-c2ccc3[nH]nc(NC(=O)[C@@H]4CCCNC4)c3c2)c(Cl)c1` [cpd 8, (3R)-N-[5-(2-Chloro-4-methylphenyl)-1H-indazol-3-yl]piperidine-3-carboxamide hydrochloride] returned a DC50 of 125 nM. As for `NC(=O)c1ccc(Cl)c(-c2ccc3[nH]nc(NC(=O)C4CCCNC4)c3c2)c1` (stereo not shown) [cpd 9, N-[5-(5-Carbamoyl-2-chlorophenyl)-1H-indazol-3-yl]piperidine-3-carboxamide hydrochloride], the figure is 131 nM; as for `Nc1cccc(-c2ccc3[nH]nc(NC(=O)C4CCCNC4)c3c2)c1F` (stereo not shown) [cpd 11, N-[5-(3-Amino-2-fluorophenyl)-1H-indazol-3-yl]piperidine-3-carboxamide hydrochloride], 183 nM; as for `O=C(Nc1n[nH]c2ccc(-c3cc(Cl)ccc3Cl)cc12)[C@@H]1CCCNC1` [cpd 13, (3R)-N-[5-(2,5-Dichlorophenyl)-1H-indazol-3-yl]piperidine-3-carboxamide hydrochloride], 36 nM. As for `O=C(Nc1n[nH]c2ccc(-c3ccc(Cl)cc3Cl)cc12)[C@@H]1CCCNC1` [cpd 14, (3R)-N-[5-(2,4-Dichlorophenyl)-1H-indazol-3-yl]piperidine-3-carboxamide hydrochloride], the figure is 87 nM; as for `O=C(Nc1n[nH]c2ccc(-c3cc(Cl)ccc3C(F)(F)F)cc12)C1CCCNC1` (stereo not shown) [cpd 15, N-{5-[5-Chloro-2-(trifluoromethyl)phenyl]-1H-indazol-3-yl}piperidine-3-carboxamide trifluoroacetate], 130 nM; as for `CC(=O)c1ccc(F)c(-c2ccc3[nH]nc(NC(=O)C4CCCNC4)c3c2)c1` (stereo not shown) [cpd 16, N-[5-(5-Acetyl-2-fluorophenyl)-1H-indazol-3-yl]piperidine-3-carboxamide hydrochloride], 72 nM.

Turning to `COc1ccc(Cl)c(-c2ccc3[nH]nc(NC(=O)C4CCCNC4)c3c2)c1` (stereo not shown) [cpd 17, N-[5-(2-Chloro-5-methoxyphenyl)-1H-indazol-3-yl]piperidine-3-carboxamide hydrochloride], the DC50 stood at 52 nM. Then `COc1ccc(Cl)c(-c2ccc3[nH]nc(NC(=O)[C@@H]4CCCNC4)c3c2)c1` [cpd 18, (3R)-N-[5-(2-Chloro-5-methoxyphenyl)-1H-indazol-3-yl]piperidine-3-carboxamide hydrochloride], with 25 nM; and `CC(=O)c1ccc(F)c(-c2ccc3[nH]nc(NC(=O)[C@@H]4CCCNC4)c3c2)c1` [cpd 19, (3R)-N-[5-(5-Acetyl-2-fluorophenyl)-1H-indazol-3-yl]piperidine-3-carboxamide hydrochloride], with 27 nM.

Molecule `COc1ccc(F)c(-c2ccc3[nH]nc(NC(=O)[C@@H]4CCCNC4)c3c2)c1` [cpd 20, (3R)-N-[5-(2-Fluoro-5-methoxyphenyl)-1H-indazol-3-yl]piperidine-3-carboxamide hydrochloride] showed a DC50 of 89 nM. Then `O=C(Nc1n[nH]c2ccc(-c3cc(Cl)ccc3F)cc12)[C@@H]1CCCNC1` [cpd 21, (3R)-N-[5-(5-Chloro-2-fluorophenyl)-1H-indazol-3-yl]piperidine-3-carboxamide hydrochloride], with 46 nM. Take `CCOc1ccc(F)c(-c2ccc3[nH]nc(NC(=O)[C@@H]4CCCNC4)c3c2)c1` [cpd 22, (3R)-N-[5-(5-Ethoxy-2-fluorophenyl)-1H-indazol-3-yl]piperidine-3-carboxamide hydrochloride]: the DC50 is 55 nM.

The molecule `O=C(Nc1n[nH]c2ccc(-c3cc(OC(F)(F)F)ccc3F)cc12)[C@@H]1CCCNC1` [cpd 23, (3R)-N-{5-[2-Fluoro-5-(trifluoromethoxy)phenyl]-1H-indazol-3-yl}piperidine-3-carboxamide hydrochloride] gave a DC50 of 75 nM.

For the molecule `O=C1CCC(C(=O)Nc2n[nH]c3ccc(-c4c(Cl)cccc4Cl)cc23)CN1` (stereo not shown) [cpd 27, N-[5-(2,6-Dichlorophenyl)-1H-indazol-3-yl]-6-oxopiperidine-3-carboxamide], the DC50 turned out to be 338 nM.

The values above are taken from patent US20250206724A1, “SUBSTITUTED 3-AMINO INDAZOLE DERIVATIVES AS KINASE INHIBITORS” (NERVIANO MEDICAL SCIENCES S.R.L., priority 2022, published 2025).
